The values that follow come from US20040248887A1, “Inhibitors of cathepsin S” (IRM LLC, priority 2003, published 2004).

The target of the experiment is Cathepsin S (Homo sapiens, UniProt P25774). Nature of the experiment: Cathepsin S inhibition, fluorogenic peptide substrate kinetic assay. Type of experiment: biochemical. The following applies: Table II; Cathepsin S inhibition constant, pH5.5; read-out: Ki Cat. S. The method, boiled down:
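Reactions were started with 50 μM (final) acetyl-His-Pro-Val-Lys-aminocarbamoylcoumarin, and hydrolysis was followed by fluorescence (ex 380/em 450 nm). Apparent inhibition constants from enzyme progress curves were converted to Ki for competitive inhibitors using substrate concentration and Km.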

Some results are limits rather than exact numbers.

Cathepsin S, sequence (P25774 115-331, species assumed): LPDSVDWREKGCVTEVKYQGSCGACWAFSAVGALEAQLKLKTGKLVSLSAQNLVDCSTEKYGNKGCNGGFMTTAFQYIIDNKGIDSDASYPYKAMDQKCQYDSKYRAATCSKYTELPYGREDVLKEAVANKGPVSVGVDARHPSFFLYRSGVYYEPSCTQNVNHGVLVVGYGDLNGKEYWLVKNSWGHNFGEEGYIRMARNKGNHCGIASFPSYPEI

The term Ki denotes a dissociation constant, usually derived from enzyme kinetics or from competition with a known ligand. Consider `CC(=O)Nc1nc(C)c(S(=O)(=O)N[C@@H](CC2CCCCC2)C(=O)NCCN2CCc3cc(F)ccc32)s1` [Compound 257, (S)-2-(2-Acetylamino-4-methyl-thiazole-5-sulfonylamino)-3-cyclohexyl-N-[2-(5-fluoro-2,3-dihydro-indol-1-yl)-ethyl]-propionamide], for which the Ki was less than 0.1 µM. For `O=C(NC(C(=O)N[C@@H](CO)CN1CCc2cc(F)ccc21)c1ccc(Cl)cc1Cl)c1ccc(F)c(F)c1` (mixture of isomers) [Compound 208, N-(R,S)-((3-(5-fluoroindolin-1-yl)-1-hydroxypropan-2-(R)-ylcarbamoyl)(2,4-dichlorophenyl)methyl)-3,4-difluorobenzamide], the inhibitory constant (Ki) is less than 0.1 µM. `C[C@@H](CNc1ccc(OC(F)(F)F)cc1)NC(=O)[C@H](CC(C)(C)C)NC(=O)c1ccc(-c2cccc(F)c2)o1` [Compound 127, 5-(3-Fluoro-phenyl)-furan-2-carboxylic acid {3,3-dimethyl-1-(S)-[1-(S)-methyl-2-(4-trifluoromethoxy-phenylamino)-ethylcarbamoyl]-butyl}-amide]: the Ki was less than 0.1 µM. Next, `Cc1cccc(C(=O)N[C@@H](CC(C)C)C(=O)N[C@@H](CCC(=O)O)CN2CCc3cc(F)ccc32)c1` [Compound 43, (S,S)-5-(5-Fluoro-2,3-dihydro-indol-1-yl)-4-[4-methyl-2-(3-methyl-benzoylamino)-pentanoylamino]-pentanoic acid]: less than 0.1 µM; `Cc1cccc(C(=O)N[C@@H](Cc2ccccc2)C(=O)NCCN2CCc3cc(F)ccc32)c1` [Compound 205, N-((S)-1-(2-(5-fluoroindolin-1-yl)ethylcarbamoyl)-2-phenylethyl)-3-methylbenzamide]: less than 1 µM; `C[C@@H](CN1c2ccc(F)cc2CC1(C)C)NC(=O)[C@H](CC1CCCCC1)NC(=O)[C@H]1CCCO1` [Compound 274, Tetrahydrofuran-2-(R)-carboxylic acid {2-cyclohexyl-1-(S)-[2-(5-fluoro-2,2-dimethyl-2,3-dihydro-indol-1-yl)-1-(S)-methyl-ethylcarbamoyl]-ethyl}-amide]: less than 1 µM.

For the compound `COc1cccc(C(=O)N[C@@H](CCC2CCCCC2)C(=O)N[C@@H](CCCCN)CN2CCc3cc(F)ccc32)c1` [Compound 167, N-{1-(S)-[5-Amino-1-(S)-(5-fluoro-2,3-dihydro-indol-1-ylmethyl)-pentylcarbamoyl]-3-cyclohexyl-propyl}-3-methoxy-benzamide], the inhibition constant (Ki) is less than 0.1 µM.

Take `COc1cccc(C(=O)N[C@@H](CC(C)(C)C)C(=O)N[C@@H](Cc2nnn[nH]2)CN2CCc3cc(F)ccc32)c1` [Compound 166, N-{1-(S)-[2-(5-Fluoro-2,3-dihydro-indol-1-yl)-1-(S)-(1H-tetrazol-5-ylmethyl)-ethylcarbamoyl]-3,3-dimethyl-butyl}-3-methoxy-benzamide]: the inhibitory constant (Ki) is less than 0.1 µM.

As for `C[C@@H](CN1CC(C)(C)c2cc(F)ccc21)NC(=O)[C@H](CC1CCCCC1)NC(=O)[C@H]1CCCO1` [Compound 273, Tetrahydrofuran-2-(R)-carboxylic acid {2-cyclohexyl-1-(S)-[2-(5-fluoro-3,3-dimethyl-2,3-dihydro-indol-1-yl)-1-(S)-methyl-ethylcarbamoyl]-ethyl}-amide], the inhibition constant (Ki) was less than 0.1 µM. On to `COc1ccc(NC[C@H](C)NC(=O)[C@H](CCC2CCCCC2)NC(=O)c2ccc(-c3cccc(C(F)(F)F)c3)o2)cc1` [Compound 27, 5-(3-Trifluoromethyl-phenyl)-furan-2-carboxylic acid {3-cyclohexyl-(1S)-[2-(4-methoxy-phenylamino)-(1S)-methyl-ethylcarbamoyl]-propyl}-amide], for which the Ki is less than 0.1 µM.

Consider `C[C@@H](CN1CCc2cc(F)ccc21)NC(=O)[C@H](CC1CCCCC1)NS(=O)(=O)c1ccccc1` [Compound 264, (S,S)-2-Benzenesulfonylamino-3-cyclohexyl-N-[2-(5-fluoro-2,3-dihydro-indol-1-yl)-1-methyl-ethyl]-propionamide], for which the inhibition constant Ki was less than 0.1 µM. With `O=C(C[C@@H](CN1CCc2cc(F)ccc21)NC(=O)[C@H](CC1CCCCC1)NC(=O)OCc1ccccc1)OCc1ccccc1` [Compound 168, 3-(S)-(2-(S)-Benzyloxycarbonylamino-3-cyclohexyl-propionylamino)-4-(5-fluoro-2,3-dihydro-indol-1-yl)-butyric acid benzyl ester], the Ki is less than 0.1 µM. As to `O=C(N[C@@H](CC1CCCC1)C(=O)NCCN1CCc2cc(F)ccc21)c1ccc(-c2cccc(C(F)(F)F)c2)o1` [Compound 200, N-((S)-1-(2-(5-fluoroindolin-1-yl)ethylcarbamoyl)-2-cyclopentylethyl)-5-(3-(trifluoromethyl)phenyl)furan-2-carboxamide], the Ki is less than 0.1 µM.

With `O=C(N[C@@H](CC1CCCCC1)C(=O)NCCN1CCc2cc(F)ccc21)C1CC(=O)N(Cc2ccccc2)C1` (stereo partly drawn) [Compound 65, 1-Benzyl-5-oxo-pyrrolidine-3-carboxylic acid (S)-{2-cyclohexyl-1-[2-(5-fluoro-2,3-dihydro-indol-1-yl)-ethylcarbamoyl]-ethyl}-amide], the Ki is less than 1 µM. Consider `O=C(NCCN1CCc2cc(F)ccc21)[C@H](CC1CCCCC1)NS(=O)(=O)c1ccc(OC(F)(F)F)cc1` [Compound 230, (S)-3-Cyclohexyl-N-[2-(5-fluoro-2,3-dihydro-indol-1-yl)-ethyl]-2-(4-trifluoromethoxy-benzenesulfonylamino)-propionamide], for which the inhibitory constant (Ki) is less than 1 µM. Next, `C[C@@H](CN1CC(C)(C)c2cc(F)ccc21)NC(=O)[C@H](CC1CCCCC1)NC(=O)C1CCOCC1` [Compound 173, Tetrahydropyran-4-carboxylic acid {2-cyclohexyl-1-(S)-[2-(5-fluoro-3,3-dimethyl-2,3-dihydro-indol-1-yl)-1-(S)-methyl-ethylcarbamoyl]-ethyl}-amide]: less than 0.1 µM; `COc1cccc(C(=O)NC(C(=O)N[C@@H](COCc2ccccc2)CN2CCc3cc(F)ccc32)c2ccccc2)c1` (mixture of isomers) [Compound 36, N-(S)-{[1-(R)-Benzyloxymethyl-2-(5-fluoro-2,3-dihydro-indol-1-yl)-ethylcarbamoyl]-phenyl-methyl}-3-methoxy-benzamide]: less than 0.1 µM; `C[C@@H](CNc1ccc(OC(F)(F)F)cc1)NC(=O)[C@H](CC1CCCCC1)NC(=O)c1nnc(-c2cccc(F)c2)o1` [Compound 147, 5-(3-Fluoro-phenyl)-[1,3,4]oxadiazole-2-carboxylic acid {2-cyclohexyl-1-(S)-[1-(S)-methyl-2-(4-trifluoromethoxy-phenylamino)-ethylcarbamoyl]-ethyl}-amide]: less than 0.1 µM. Regarding `Cc1cccc(C(=O)N[C@@H](CC(C)C)C(=O)N[C@@H](CCC(N)=O)CN2CCc3cc(F)ccc32)c1` [Compound 44, (S,S)-N-{1-[3-Carbamoyl-1-(5-fluoro-2,3-dihydro-indol-1-ylmethyl)-propylcarbamoyl]-3-methyl-butyl}-3-methyl-benzamide], the Ki was less than 0.1 µM. Next, `COc1cccc(C(=O)N[C@@H](CCC2CCCCC2)C(=O)N[C@@H](CCCCNC(=O)OCc2ccccc2)CN2CCc3cc(F)ccc32)c1` [Compound 55, (S,S)-[5-[4-Cyclohexyl-2-(3-methoxy-benzoylamino)-butyrylamino]-6-(5-fluoro-2,3-dihydro-indol-1-yl)-hexyl]-carbamic acid benzyl ester]: less than 1 µM.
